Calls of active or inactive are those of the source. The rule behind the calls is not given here.

For assay [1], the target named is BMP-2-inducible protein kinase (Homo sapiens) (UniProt Q9NSY1). As to the kind of experiment: Inhibition of wild-type human partial length BIKE (S34 to N329 residues) expressed in bacterial expression system at 1 uM by Kinomescan method.
For assay [2], the target named is NmrA-like family domain-containing protein 1 (Homo sapiens) (UniProt Q9HBL8). Description: Induction of NMRAL1 degradation in human Toledo cells assessed as decrease in protein abundance at 1 uM measured after 6 hrs by quantitative mass spectrometry. Type of assay: cell-based.
Assay [3] addresses von Hippel-Lindau disease tumor suppressor (Homo sapiens, UniProt P40337). As to the kind of experiment: Displacement of 5-FAM-labelled DEALA-HypYIPMDDDFQLRSF peptide from VHL (unknown origin) by fluorescence polarization assay. (Polarisation of emitted light reports the rotation of a fluorescent probe.)
A short description of assay [4]: Cytotoxicity against human HBL1 cells assessed as reduction in cell viability measured after 12 days by CellTiter-Glo assay. The format is functional. As to conditions: time 12 day. (In general: ATP-based viability assays read luminescence as a measure of living cells.)
Assay [5] has as its target T1, Cyclin-G-associated kinase (Homo sapiens) (UniProt O14976).
T1 sequence (whole entry): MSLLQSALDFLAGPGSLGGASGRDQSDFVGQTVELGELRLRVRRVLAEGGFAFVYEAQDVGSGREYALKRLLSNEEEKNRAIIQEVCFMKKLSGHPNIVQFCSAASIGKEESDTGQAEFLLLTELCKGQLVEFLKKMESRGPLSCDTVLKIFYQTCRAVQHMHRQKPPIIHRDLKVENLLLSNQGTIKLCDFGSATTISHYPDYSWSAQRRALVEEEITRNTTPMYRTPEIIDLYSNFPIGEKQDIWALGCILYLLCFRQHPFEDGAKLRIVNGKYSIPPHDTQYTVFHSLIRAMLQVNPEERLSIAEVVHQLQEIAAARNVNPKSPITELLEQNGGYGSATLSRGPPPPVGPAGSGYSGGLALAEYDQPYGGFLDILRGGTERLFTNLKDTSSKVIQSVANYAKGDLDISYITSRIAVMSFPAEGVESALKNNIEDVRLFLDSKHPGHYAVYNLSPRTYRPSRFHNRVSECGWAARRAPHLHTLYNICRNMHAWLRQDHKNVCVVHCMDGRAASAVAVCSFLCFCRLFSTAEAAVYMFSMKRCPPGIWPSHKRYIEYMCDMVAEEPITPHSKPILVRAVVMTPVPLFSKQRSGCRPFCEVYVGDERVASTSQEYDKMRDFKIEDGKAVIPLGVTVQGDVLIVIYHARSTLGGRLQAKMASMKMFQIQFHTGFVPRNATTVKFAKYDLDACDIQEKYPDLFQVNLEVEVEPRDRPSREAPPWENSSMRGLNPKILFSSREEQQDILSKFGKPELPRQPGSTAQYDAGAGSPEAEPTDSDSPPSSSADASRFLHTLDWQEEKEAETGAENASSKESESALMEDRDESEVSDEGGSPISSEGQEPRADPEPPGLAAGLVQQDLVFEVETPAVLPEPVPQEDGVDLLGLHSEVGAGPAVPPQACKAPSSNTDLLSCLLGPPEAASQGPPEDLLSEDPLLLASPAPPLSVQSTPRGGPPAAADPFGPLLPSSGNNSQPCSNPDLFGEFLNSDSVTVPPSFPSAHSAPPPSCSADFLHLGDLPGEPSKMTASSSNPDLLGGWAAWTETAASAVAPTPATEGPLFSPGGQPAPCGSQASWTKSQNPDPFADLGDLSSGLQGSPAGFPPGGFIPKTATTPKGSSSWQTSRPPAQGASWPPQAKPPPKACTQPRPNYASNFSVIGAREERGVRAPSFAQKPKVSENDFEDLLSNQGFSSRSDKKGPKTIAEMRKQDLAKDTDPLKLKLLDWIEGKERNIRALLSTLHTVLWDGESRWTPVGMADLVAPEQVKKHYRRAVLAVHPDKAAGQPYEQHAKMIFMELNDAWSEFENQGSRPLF
As to the kind of experiment: Inhibition of wild-type human partial length GAK (G13 to Y338 residues) expressed in bacterial expression system at 1 uM by Kinomescan method relative to control.

For assay [6], the target named is T2, von Hippel-Lindau disease tumor suppressor/Interleukin-1 receptor-associated kinase 1 (Homo sapiens, UniProt P51617+P40337). As to the kind of experiment: Protac activity at IRAK1/VHL E3 ligase in HEK293T cells assessed as induction of IRAK1 degradation at 1 uM measured after 24 hrsin presence of proteasome inhibitior MG-132 by Western blot analysis. Type of assay: cell-based. To be noted: time 24.0 hrs. A general note: A western blot detects proteins with antibodies after separation by electrophoresis.
Target sequence in this assay (P40337 whole entry, looked up): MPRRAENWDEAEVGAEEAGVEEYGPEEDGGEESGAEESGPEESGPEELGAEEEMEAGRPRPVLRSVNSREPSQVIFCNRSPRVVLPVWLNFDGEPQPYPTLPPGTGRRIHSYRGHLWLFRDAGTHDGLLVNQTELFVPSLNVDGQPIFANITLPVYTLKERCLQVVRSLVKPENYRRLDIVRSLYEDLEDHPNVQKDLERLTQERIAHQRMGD
Target sequence in this assay (P51617 whole entry, looked up): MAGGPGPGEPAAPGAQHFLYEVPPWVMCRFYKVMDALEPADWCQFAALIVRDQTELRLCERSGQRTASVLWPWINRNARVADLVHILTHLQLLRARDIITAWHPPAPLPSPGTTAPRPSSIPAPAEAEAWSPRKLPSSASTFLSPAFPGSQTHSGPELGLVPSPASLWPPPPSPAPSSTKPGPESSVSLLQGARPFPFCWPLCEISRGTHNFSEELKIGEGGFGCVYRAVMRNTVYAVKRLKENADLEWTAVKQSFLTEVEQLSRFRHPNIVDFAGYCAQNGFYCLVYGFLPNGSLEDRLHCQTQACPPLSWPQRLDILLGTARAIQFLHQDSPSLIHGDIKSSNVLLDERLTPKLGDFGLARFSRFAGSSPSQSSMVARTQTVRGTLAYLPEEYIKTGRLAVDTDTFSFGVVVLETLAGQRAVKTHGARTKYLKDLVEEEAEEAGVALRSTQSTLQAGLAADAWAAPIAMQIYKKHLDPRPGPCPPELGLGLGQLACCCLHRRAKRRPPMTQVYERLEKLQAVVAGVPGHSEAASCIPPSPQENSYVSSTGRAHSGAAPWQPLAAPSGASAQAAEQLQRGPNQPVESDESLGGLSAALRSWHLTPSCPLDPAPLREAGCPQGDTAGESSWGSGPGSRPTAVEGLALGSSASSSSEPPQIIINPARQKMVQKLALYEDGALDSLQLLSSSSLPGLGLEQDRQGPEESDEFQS

The target of assay [7] is T2, von Hippel-Lindau disease tumor suppressor/Interleukin-1 receptor-associated kinase 1. Description: Protac activity at IRAK1/VHL E3 ligase in human OCILY10 assessed as induction of IRAK1 degradation measured after 24 hrs by Western blot analysis.
Target sequence in this assay (P51617 whole entry): as the sequence (P51617 whole entry, looked up) above
Target sequence in this assay (P40337 whole entry): as the sequence (P40337 whole entry, looked up) above
In assay [8] the target is T3, Interleukin-1 receptor-associated kinase 1 (Homo sapiens, UniProt P51617). As to the kind of experiment: Inhibition of IRAK1 in human HBL1 cells assessed as reduction in phosphorylated IKBA level at up to 1 uM measured after 24 hrs by Western blot analysis. Type of assay: cell-based. To be noted: dose microM <=1, time 24.0 hrs.
In assay [9] the target is T3, Interleukin-1 receptor-associated kinase 1. As to the kind of experiment: Inhibition of IRAK1 in human HBL1 cells assessed as reduction in phosphorylated STAT3 level at up to 1 uM measured after 24 hrs by Western blot analysis. The format is cell-based. To be noted: dose microM <=1, time 24.0 hrs.
In a further assay the test system is HBL1. Description: Induction of apoptosis in human HBL1 cells assessed as increase in PARP cleavage at up to 1 uM measured after 24 hrs by Western blot analysis. Type of assay: functional, cell-based. As to conditions: dose microM <=1, time 24.0 hrs.
Assay [10] has as its target T3, Interleukin-1 receptor-associated kinase 1. Description: Induction of IRAK1 degradation in human Toledo cells assessed as decrease in protein abundance at 1 uM measured after 6 hrs by quantitative mass spectrometry. The format is cell-based.
In assay [11] the target is T1, Cyclin-G-associated kinase (Homo sapiens). Description: Induction of GAK degradation in human Toledo cells at 1 uM measured after 6 hrs by quantitative mass spectrometry relative to control. The format is cell-based.
Assay [12] concerns the target T3, Interleukin-1 receptor-associated kinase 1. Description: Inhibition of IRAK1 in human HBL1 cells assessed as reduction in total STAT3 level at up to 1 uM measured after 24 hrs by Western blot analysis. Type of assay: cell-based. To be noted: dose microM <=1, time 24.0 hrs.
In assay [13] the target is T4, Serine/threonine-protein kinase 17B (Homo sapiens) (UniProt O94768).
T4 sequence (whole entry): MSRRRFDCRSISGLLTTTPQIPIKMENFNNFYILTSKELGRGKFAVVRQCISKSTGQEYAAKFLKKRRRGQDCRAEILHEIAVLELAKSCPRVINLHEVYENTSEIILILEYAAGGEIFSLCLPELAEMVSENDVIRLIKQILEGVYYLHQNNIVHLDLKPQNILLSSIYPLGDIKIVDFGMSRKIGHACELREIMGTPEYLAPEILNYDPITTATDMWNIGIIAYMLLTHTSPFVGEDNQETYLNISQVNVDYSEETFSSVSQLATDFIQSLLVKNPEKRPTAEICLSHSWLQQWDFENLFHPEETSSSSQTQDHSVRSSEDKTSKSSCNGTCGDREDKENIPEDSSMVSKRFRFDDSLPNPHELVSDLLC
Description: Inhibition of wild-type human full length DRAK2 (M1 to C372 residues) expressed in bacterial expression system at 1 uM by Kinomescan method.

T3 sequence (P51617 whole entry, looked up): as the sequence (P51617 whole entry, looked up) above
Chain of BMP-2-inducible protein kinase (Homo sapiens) (Q9NSY1 whole entry, looked up, the tested form may be a part): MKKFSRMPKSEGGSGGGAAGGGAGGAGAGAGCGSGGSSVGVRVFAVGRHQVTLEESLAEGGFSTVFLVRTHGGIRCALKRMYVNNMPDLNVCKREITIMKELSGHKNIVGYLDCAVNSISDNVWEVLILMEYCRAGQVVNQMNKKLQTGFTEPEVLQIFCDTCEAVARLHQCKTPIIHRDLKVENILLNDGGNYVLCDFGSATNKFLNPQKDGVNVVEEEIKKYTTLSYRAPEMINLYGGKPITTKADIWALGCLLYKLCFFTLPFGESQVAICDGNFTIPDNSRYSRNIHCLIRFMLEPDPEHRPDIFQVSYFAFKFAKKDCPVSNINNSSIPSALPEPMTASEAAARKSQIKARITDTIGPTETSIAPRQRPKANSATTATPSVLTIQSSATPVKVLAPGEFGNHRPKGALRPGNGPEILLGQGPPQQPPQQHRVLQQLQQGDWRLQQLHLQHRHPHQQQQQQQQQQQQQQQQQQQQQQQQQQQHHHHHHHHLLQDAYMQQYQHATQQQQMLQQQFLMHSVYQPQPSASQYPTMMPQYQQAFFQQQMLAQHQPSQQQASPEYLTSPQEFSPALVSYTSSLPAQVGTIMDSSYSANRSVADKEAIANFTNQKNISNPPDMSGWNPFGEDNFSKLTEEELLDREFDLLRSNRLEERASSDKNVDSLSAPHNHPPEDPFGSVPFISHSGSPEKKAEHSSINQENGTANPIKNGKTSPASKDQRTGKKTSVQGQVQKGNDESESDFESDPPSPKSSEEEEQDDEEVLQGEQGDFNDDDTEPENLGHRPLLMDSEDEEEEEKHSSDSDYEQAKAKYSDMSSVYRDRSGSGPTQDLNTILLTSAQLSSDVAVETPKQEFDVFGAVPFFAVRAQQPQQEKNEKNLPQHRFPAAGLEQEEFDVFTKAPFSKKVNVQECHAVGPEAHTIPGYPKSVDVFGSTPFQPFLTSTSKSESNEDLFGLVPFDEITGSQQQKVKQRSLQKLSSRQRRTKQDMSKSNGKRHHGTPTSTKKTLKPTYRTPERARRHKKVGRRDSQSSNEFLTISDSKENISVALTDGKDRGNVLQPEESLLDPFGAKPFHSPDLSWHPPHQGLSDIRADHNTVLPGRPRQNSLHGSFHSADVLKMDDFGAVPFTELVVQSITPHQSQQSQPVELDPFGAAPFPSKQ
Chain of von Hippel-Lindau disease tumor suppressor (P40337 whole entry): as the sequence (P40337 whole entry, looked up) above
Chain of NmrA-like family domain-containing protein 1 (Homo sapiens) (Q9HBL8 whole entry, the tested form may be a part): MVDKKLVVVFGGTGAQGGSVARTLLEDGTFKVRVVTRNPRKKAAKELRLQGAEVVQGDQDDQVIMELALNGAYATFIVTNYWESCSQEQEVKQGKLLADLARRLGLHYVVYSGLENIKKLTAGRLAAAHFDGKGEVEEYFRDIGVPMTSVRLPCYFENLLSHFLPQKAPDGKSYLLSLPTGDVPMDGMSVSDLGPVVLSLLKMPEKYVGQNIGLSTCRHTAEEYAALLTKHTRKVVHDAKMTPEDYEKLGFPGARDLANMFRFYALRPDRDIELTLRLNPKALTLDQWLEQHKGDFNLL

For the molecule `COc1cc(N2CCC(OCC(=O)N[C@H](C(=O)N3C[C@H](O)C[C@H]3C(=O)N[C@@H](C)c3ccc(-c4scnc4C)cc3)C(C)(C)C)CC2)ccc1NC(=O)c1cccc(-c2ccn[nH]2)n1`, the inhibition result in assay [1], in assay [8], in assay [9] and in assay [13] was “Active” in each case. The outcome (in assay [2]; with HBL1; in assay [10]) was Active. Further, in [3], the IC50 stood at 1070 nM. Besides, the Activity in assay [4] is 60 nM; in [11] it was 50%. Further, the inhibition in assay [5] was determined as 63%. For the same molecule, the result in [6] was inactive. In addition, the 50% degradation concentration (DC50) in assay [7] amounted to 20 nM. The inhibition entry in assay [12] is “inactive”.

As usually defined, the inhibition is the change of the read-out against control, counted positive when it falls. By IC50 is commonly meant the point on the concentration scale where inhibition reaches its midpoint. The low end stands for higher potency, the high end for lower potency. For orientation: DC50 means the concentration at which degradation of the target reaches its halfway point.

Values taken from ChEMBL document CHEMBL5029152, “Discovery of Highly Potent and Selective IRAK1 Degraders to Probe Scaffolding Functions of IRAK1 in ABC DLBCL” (J Med Chem, 2021).
